Measurements as given in patent publication US5670538A, “Use of prodelphinidins for obtaining medicaments intended for the treatment of arthrosis” (Laboratoires Dolisos, priority 1992, dated 1997).
Where two headings read alike, the source gives them in different places.

System: human articular chondrocytes
Experiment: Radioimmunoassay of cartilaginous proteoglycans (PG) produced in tridimensional culture of human chondrocytes
Type: cell-based
Conditions: for PG in the clusters over 12 days: 0-12 days
From the text: The model used for testing the proanthocyanidols, namely the tridimensional culture of human chondrocytes allows chondrorepair to be quantified by the production of matrix substances: type II collagen, proteoglycans, and chondroresorption by the reduction in the levels of prostaglandin E2 and of OH° and O°2 type free radicals produced.
1. Tridimensional culture of human chondrocytes
The technique used has been described in detail (Bassleer et al., 1986).
Briefly, human articular chondrocytes are cultivated in DMEM (Dulbecco's Modification of Eagle's Medium--ICN--Gand, Belgium) with either Ultroser G 1% (GIBCO, Gand, Belgium) or 10% of foetal calf serum (ICN--Gand--Belgium), and 50 μg of ascorbic acid/ml added to it. The cartilage originates from the apparently normal zone of heads of human femur suffering from arthrosis, immediately after an operation carried out to insert a total hip prosthesis; it can also originate from the head of a healthy femur, but which has undergone a traumatism and has had to be replaced. This cartilage is then digested by clostridial collagenase 1 mg/ml (Boehringer-Mannheim, Germany) in a buffer (NaCl 120 mM, CaCl2 1 mM, KCl 5 mM, KH2 PO4 1 mM, NaHCO3 25 mM, glucose 2 mM and Hepes 30 mM, pH 7.4) for 24 hours. After 6 successive washings and centrifugations, the chondrocytes, isolated from their matrix, are cultured in flasks (10^6 cells/2 ml of culture medium) placed on a gyrator (10 rpm). The cultures are kept at 37° C. in an atmosphere of air 95%-CO2 5% (Bassleer et al., 1986). Cultivated under these conditions, after 4 to 5 days the chondrocytes form a tridimensional cluster in each flask. These clusters, which at first have a flocculent appearance, then tend to condense during the culture. After two weeks, their diameter is, in general, from 1 to 2 mm.
The fresh weight of the clusters increases with the duration of the culture, above all during the few first days.
2. Radioimmunoassay of cartilaginous proteoglycans (PG)
The PGs are measured with a radioimmunoassay (RIA) which is specific and sensitive to human cartilaginous PGs (Gysen et al. 1984). The PGs were extracted from human cartilage, according to the methods described by Roughley et al., (1981) and by Bayliss and Venn (1980). The antiserum against the cartilaginous PGs was obtained from the rabbit according to the technique of Vaitukaitis et al. (1971). The radioimmunoassay is carried out in a 0.4 ml volume consisting of 0.1 ml of tracer solution (15000 to 20000 cpm ^125 I-PG, labelled by the chloramine T method (Greenwood, 1973). 0.1 ml of anti-PG antiserum diluted to 1/5000 in phosphate-buffered saline (PBS-50 mM PO4, 150 mM NaCl ), containing BSA (5 g/l bovine serum albumin and 6.7 mM sodium azide) (incubation buffer) and 0.2 ml of several dilutions of the culture medium or of the cluster extract or also of the antigen (0.5 -500 ng/tube).
After four days at 4° C., the free PGs* (radioactive PGs) are separated from the PG*-antibody complexes by double precipitation (Franchimont et al., 1983).
The sensitivity of the assay is 0.6 ng/tube. The accuracy of measurement is of the order of 4%. The coefficients of the intra- and inter assay variation are less than 10% and 20% respectively.
The antibodies are directed against the antigenic determinants of the central protein of PG. There is a complete crossed reaction with human PGs of cartilage from the ribs, vertebral disks and trachea, even with PGs extracted from veins or arteries. There is no cross reaction with glycosaminoglycans or with PGs extracted from foetal tissues or the small PGs from bone.
The PGs are measured directly in the culture medium. As for the chondrocyte clusters, they are washed 3 times in a phosphate-buffered saline (PBS-50 mM PO4, 150 mM NaCl pH 7.4) containing protease inhibitors (Oegema et al., 1975:100 mM 6-aminohexanoic acid, 10 mM EDTA, 50 mM benzamidine hydrochloride, 5.10^-8 M trypsin inhibitor, 6.7 mM sodium azide and 200 U/ml superoxide dismutase). […]

## Oc1cc(O)c2c(c1)O[C@H](c1cc(O)c(O)c(O)c1)[C@@H](O)[C@@H]2c1c(O)cc(O)c2c1O[C@H](c1cc(O)c(O)c(O)c1)[C@@H](O)[C@@H]2c1c(O)cc(O)c2c1O[C@H](c1cc(O)c(O)c(O)c1)[C@@H](O)C2 [Substance Ic, GC-(4 alpha→8) GC-(4 a→8)-GC]
1% Ultroser G, 1 μg/ml
  PG in the clusters over 12 days: 886 ± 114 ng/μg DNA
  PGs released in the culture medium, effect in words: significant effect
1% Ultroser G, 10 μg/ml
  PG in the clusters over 12 days: 1046 ± 74 ng/μg DNA
1% Ultroser G, 100 μg/ml
  PG in the clusters over 12 days: 1184 ± 33 ng/μg DNA
1% Ultroser G, culture time 0-4 days, 1 μg/ml
  PGs released in the culture medium: 15.9 ± 1.15 μg/μg DNA/96 h
1% Ultroser G, culture time 0-4 days, 10 μg/ml
  PGs released in the culture medium: 19.1 ± 1.2 μg/μg DNA/96 h
1% Ultroser G, culture time 0-4 days, 100 μg/ml
  PGs released in the culture medium: 21.1 ± 1.0 μg/μg DNA/96 h
1% Ultroser G, culture time 4-8 days, 1 μg/ml
  PGs released in the culture medium: 3.7 ± 0.15 μg/μg DNA/96 h
1% Ultroser G, culture time 4-8 days, 10 μg/ml
  PGs released in the culture medium: 4.4 ± 0.52 μg/μg DNA/96 h
1% Ultroser G, culture time 4-8 days, 100 μg/ml
  PGs released in the culture medium: 4.9 ± 0.45 μg/μg DNA/96 h
1% Ultroser G, culture time 8-12 days, 1 μg/ml
  PGs released in the culture medium: 1.32 ± 0.7 μg/μg DNA/96 h
1% Ultroser G, culture time 8-12 days, 10 μg/ml
  PGs released in the culture medium: 1.53 ± 0.15 μg/μg DNA/96 h
1% Ultroser G, culture time 8-12 days, 100 μg/ml
  PGs released in the culture medium: 1.75 ± 0.05 μg/μg DNA/96 h
1% Ultroser G, cumulative, 1 μg/ml
  Proteoglycans released during the 12 days of culture, Abs: 20.9 μg/μg DNA/12 days
1% Ultroser G, cumulative, 10 μg/ml
  Proteoglycans released during the 12 days of culture, Abs: 25 μg/μg DNA/12 days
1% Ultroser G, cumulative, 100 μg/ml
  Proteoglycans released during the 12 days of culture, Abs: 27.8 μg/μg DNA/12 days
1% Ultroser G, three concentrations studied
  Concentrations of PG in the clusters, effect in words: significantly stimulated and in a dose-dependent way
Homo sapiens, Chondrocyte, 288 h, 1% Ultroser G, cumulative, 1 μg/ml, control = 100, read-out: Proteoglycans released during the 12 days of culture, %
  activity at 1 µg/mL: 127%
Homo sapiens, Chondrocyte, 288 h, 1% Ultroser G, cumulative, 10 μg/ml, control = 100, read-out: Proteoglycans released during the 12 days of culture, %
  activity at 10 µg/mL: 150%
Homo sapiens, Chondrocyte, 288 h, 1% Ultroser G, cumulative, 100 μg/ml, control = 100, read-out: Proteoglycans released during the 12 days of culture, %
  activity at 100 µg/mL: 170%
Homo sapiens, Chondrocyte, foetal calf serum, Table 14, 0-4 days, 10 μg/ml, control = 100%, read-out: PG in the culture medium, % of control
  activity at 10 µg/mL: 120%
Homo sapiens, Chondrocyte, foetal calf serum, Table 14, 0-4 days, 100 μg/ml, control = 100%, read-out: PG in the culture medium, % of control
  activity at 100 µg/mL: 160%
Homo sapiens, Chondrocyte, foetal calf serum, Table 14, 4-8 days, 10 μg/ml, control = 100%, read-out: PG in the culture medium, % of control
  activity at 10 µg/mL: 118%
Homo sapiens, Chondrocyte, foetal calf serum, Table 14, 4-8 days, 100 μg/ml, control = 100%, read-out: PG in the culture medium, % of control
  activity at 100 µg/mL: 121%
Homo sapiens, Chondrocyte, foetal calf serum, Table 15, 0-4 days, 10 μg/ml, control = 100%, read-out: PG in the culture medium, % of control
  activity at 10 µg/mL: 132%
Homo sapiens, Chondrocyte, foetal calf serum, Table 15, 0-4 days, 100 μg/ml, control = 100%, read-out: PG in the culture medium, % of control
  activity at 100 µg/mL: 140%
Homo sapiens, Chondrocyte, foetal calf serum, Table 15, 4-8 days, 10 μg/ml, control = 100%, read-out: PG in the culture medium, % of control
  activity at 10 µg/mL: 117%
Homo sapiens, Chondrocyte, foetal calf serum, Table 15, 4-8 days, 100 μg/ml, control = 100%, read-out: PG in the culture medium, % of control
  activity at 100 µg/mL: 138%
Homo sapiens, Chondrocyte, foetal calf serum, Table 16, 0-8 days, 10 μg/ml, control = 100%, read-out: PG in the clusters over 8 days, % of control
  activity at 10 µg/mL: 117%
Homo sapiens, Chondrocyte, foetal calf serum, Table 16, 0-8 days, 100 μg/ml, control = 100%, read-out: PG in the clusters over 8 days, % of control
  activity at 100 µg/mL: 132%
Homo sapiens, Chondrocyte, foetal calf serum, Table 17, 0-8 days, 10 μg/ml, control = 100%, read-out: PG in the clusters over 8 days, % of control
  activity at 10 µg/mL: 125%
Homo sapiens, Chondrocyte, foetal calf serum, Table 17, 0-8 days, 100 μg/ml, control = 100%, read-out: PG in the clusters over 8 days, % of control
  activity at 100 µg/mL: 139%
Foetal calf serum, 10 and 100 μg/ml
  PGs in the clusters, effect in words: significantly increased
Foetal calf serum, Table 14, 0-4 days, 10 μg/ml
  PG in the culture medium: 7.8 ± 1.51 μg/μg DNA - 96 H
Foetal calf serum, Table 14, 0-4 days, 100 μg/ml
  PG in the culture medium: 10.4 ± 1.19 μg/μg DNA - 96 H
Foetal calf serum, Table 14, 4-8 days, 10 μg/ml
  PG in the culture medium: 2.34 ± 0.08 μg/μg DNA - 96 H
Foetal calf serum, Table 14, 4-8 days, 100 μg/ml
  PG in the culture medium: 2.40 ± 0.35 μg/μg DNA - 96 H
Foetal calf serum, Table 15, 0-4 days, 10 μg/ml
  PG in the culture medium: 7.0 ± 1.19 μg/μg DNA - 96 H
Foetal calf serum, Table 15, 0-4 days, 100 μg/ml
  PG in the culture medium: 7.5 ± 0.96 μg/μg DNA - 96 H
Foetal calf serum, Table 15, 4-8 days, 10 μg/ml
  PG in the culture medium: 2.0 ± 0.17 μg/μg DNA - 96 H
Foetal calf serum, Table 15, 4-8 days, 100 μg/ml
  PG in the culture medium: 2.4 ± 0.25 μg/μg DNA - 96 H
Foetal calf serum, Table 16, 0-8 days, 10 μg/ml
  PG in the clusters over 8 days: 915 ± 75 ng/μg DNA
Foetal calf serum, Table 16, 0-8 days, 100 μg/ml
  PG in the clusters over 8 days: 1035 ± 121 ng/μg DNA
Foetal calf serum, Table 17, 0-8 days, 10 μg/ml
  PG in the clusters over 8 days: 718.2 ± 62.61 ng/μg DNA
Foetal calf serum, Table 17, 0-8 days, 100 μg/ml
  PG in the clusters over 8 days: 799.5 ± 85.9 ng/μg DNA
